Assay results published in US7517523B2, “Anti-MIF antibodies” (Cytokine PharmaSciences, Inc., priority 1993, dated 2009).

B1: IL-1β: recombinant murine IL-1β (protein, UniProt P10749 118-269, looked up)
Interleukin-1 beta: VPIRQLHYRLRDEQQKSLVLSDPYELKALHLNGQNINQQVIFSMSFVQGEPSNDKIPVALGLKGKNLYLSCVMKDGTPTLQLESVDPKQYPKKKMEKRFVFNKIEVKSKVEFESAEFPNWYISTSQAEHKPVFLGNNSGQDIIDFTMESVSS
B2: IFNγ: recombinant murine IFNγ (protein, UniProt P01580 23-155, looked up)
Interferon gamma: HGTVIESLESLNNYFNSSGIDVEEKSLFLDIWRNWQKDGDMKILQSQIISFYLRLFEVLKDNQAISNNISVIESHLITTFFSNSKAKKDAFMSIAKFEVNNPQVQRQAFNELIRVVHQLLPESSLRKRKRSRC
B3: TNFα: recombinant murine TNFα (protein)
chain: LRSSSQNSSDKPVAHVVANHQVEEQLEWLSQRANALLANGMDLKDNQLVVPADGLYLVYSQVLFKGQGCPDYVLLTHTVSRFAISYQEKVNLLSAVKSPCPKDTPEGAELKPWYEPIYLGGVFQLEKGDQLSAEVNLPKYLDFAESGQVYFGVIAL
B4: IL-6: recombinant murine IL-6 (protein, UniProt P08505 25-211, looked up)
Interleukin-6: FPTSQVRRGDFTEDTTPNRPVYTTSQVGGLITHVLWEIVEMRKELCNGNSDCMNNDDALAENNLKLPEIQRNDGCYQTGYNQEICLLKISSGLLEYHSYLEYMKNNLKDNKKDKARVLQRDTETLIHIFNQEVKDLHKIVLPTPISNALLTDKLESQKEWLRTKTIQFILKSLEEFLKVTLRSTRQT

Columns and labels:
RAW macrophages = assay: Inhibition of the macrophage MIF response to dexamethasone; assay type: cell-based, mouse; details: pretreatment and co-administration, 10^−6M
Experimental: RAW 264.7 murine macrophages were obtained from the American Type Culture Collection (Rockville, Md.). Cells were grown in RPMI 1640 medium (Gibco, Grand Island, N.Y.), 10% heat-inactivated fetal bovine serum (FBS) (HyClone, Logan, Utah), 50 μg/ml of carbenicillin and gentamicin. […] After 3 h of incubation at 37° C. in a humidified atmosphere with 5% CO2, nonadherent cells were removed and wells were washed twice with RPMI/1% FBS. In some experiments designed to test for inhibition of MIF release, test compounds were then added to the culture media. For example, the cells were pre-treated with 20α-dihydrocorticol at a final concentration of 10^−6M. Cells then were incubated for 12-15 h with various steroids at concentrations ranging from 10^−6M to […] (e.q., dexamethasone), along with the desired test compound (e.g., 20α-dihydrocortisol) if any. At the end of experiment, cell culture media were collected and centrifuged (10 min at 800 g). Cell-conditioned media were concentrated 10-fold by membrane filtration (10 kDa cut-off) (Centricon-10, Amicon, Beverly, N.Y.).
Samples were resolved on 18% SDS polyacrylamide gels under reducing conditions and transferred onto nitrocellulose membrane (Schleicher and Schuell, Keene, N.H.) at 50 V and 150 mA for 16 h. […]

Peritoneal Macrophages = assay: Steroid-induced MIF secretion by peritoneal macrophages; assay type: cell-based, mouse; details: 12 to 15 h
Experimental: Cells were incubated for 12 to 15 h with various steroids (at concentrations ranging from 10^−6M to 10^−14M).
Samples were resolved on 18% SDS polyacrylamide gels under reducing conditions and transferred onto nitrocellulose membrane (Schleicher and Schuell, Keene, N.H.) at 50 V and 150 mA for 16 h. Membranes were blocked with 500 mM NaCl, 50 mM Tris-Base, pH 7.5 buffer containing 5% nonfat dry milk and 0.05% Tween-20 and incubated first with polyclonal anti-rMIF serum and then with horseradish peroxidase-conjugated goat anti-rabbit IgG antibody (each diluted 1:1000 in 500 mM NaCl, 50 mM Tris-Base, pH 7.5 buffer with 1% BSA). […] Incubations were 1 h each. MIF was visualized by development with chloronaphtol/H2O2 or with TMB substrate.

[1] = tested on: Sprague-Dawley female rats; assay: Serum MIF after i.v. steroid injection; assay type: in vivo, rat; details: 10 mg/kg i.v., serum Western blotting
Experimental: Canulated Sprague-Dawley female rats were purchased from Zivic-Miller. Animals were housed with free access to food and water and were acclimatized for at least 2 days prior to experimentation. Rats were injected i.v. through the jugular vein with either dexamethasone (1, 10 or 20 mg/kg), or with RU38486 (mifepristone) (1 or 10 mg/kg), or with the two drugs together (both at 10 mg/kg, RU38486 was injected 15 min. before dexamethasone). Serum was collected 3, 6, and 9 hours post-steroids injection and analyzed by Western blotting with anti-MIF antibody.

AtT-20 pituitary cells = assay: MIF release from pituitary (AtT-20) cells (Western blotting); assay type: cell-based, mouse; details: 1-100 ng/ml
Experimental: AtT-20 cells were cultured for 24 hours in serum-free medium (enriched serum-free Joklik's medium from Gibco) containing various concentrations of LPS (E. coli LPS 0111:B4 from Sigma) at 0.5 μg/ml-50 μg/ml. […] This protein was transferred to polyvinylidene difluoride membrane and its primary N-terminal amino acid sequence was determined by automated gas-phase sequencing (Applied Biosystems).
MIF release from pituitary (AtT-20) cells was analyzed by Western blotting with anti-MIF antibody (FIG. 8). 1.5×10^5 pituitary cells were cultured serum-free for 18 h with different concentrations of LPS. After transfer, nitrocellulose membranes were incubated with rabbit anti-rMIF serum (1:1000 dilution) and bound antibody visualized with horseradish peroxidase-conjugated goat anti-rabbit antibody. 100 ng of rMIF was electrophoresed on the same gel for reference. Control supernatants (C) contained 1 μg/ml LPS that was added after removal of cells.

[2] = tested on: thioglycollate-elicited peritoneal macrophages; assay: MIF secretion by thioglycollate-elicited peritoneal macrophages stimulated with LPS or IFNγ plus LPS; assay type: cell-based, mouse; details: IFNγ 100 IU/ml given 1 h prior to LPS
Experimental: After 3 h of incubation at 37° C. in a humidified atmosphere with 5% CO2, nonadherent cells were removed and wells were washed twice with RPMI/1% FBS. Cells then were incubated for 12 h with LPS (at concentrations ranging from 1 pg/ml to 1 μg/ml) or with cytokines (1 or 10 ng/ml for TNFα, IL-1β, and IL-6, and 10, 100 or 1000 IU/ml for IFNγ) diluted in RPMI/1% FBS. For time-course experiments, conditioned media of parallel cultures were removed at 3, 6, 9, 12 and 15 h intervals after LPS stimulation. […] Cells were incubated for 12 h either with LPS or with IFNγ plus LPS. When co-stimulated with IFNγ and LPS, cells were first incubated for an hour with IFNγ (100 IU/ml) before addition of LPS at the indicated concentrations. At the end of each experiment, cell-culture media were collected, centrifuged (10 min at 800 g), and supplemented with PMSF (1 mM). Supernatants then were concentrated 10-fold by membrane filtration (10 kD cut-off) (Centricon-10, Amicon, Beverly, N.Y.). […]
For Western blotting, samples were resolved on 18% SDS polyacrylamide gels under reducing conditions and transferred onto nitrocellulose membrane (Schleicher and Schuell, Keene, N.H.) at 50 V and 150 mA for 16 h. […] Serum MIF bands were quantified by laser densitometry (Shimadzu FDU-3, CS-9000U, Braintree, Mass.). Faint densitometric signals in the MIF region were detected in most sera prior to LPS administration (0 h). […]

| Molecule | Range of Steroid Concentrations Inducing MIF in Peritoneal Macrophages (Peritoneal Macrophages) | MIF release from pituitary cells (AtT-20 pituitary cells) | further results |
| --- | --- | --- | --- |
| C[C@]12CCC(=O)C=C1CC[C@@H]1[C@@H]2[C@@H](O)C[C@@]2(C)[C@H]1CC[C@]2(O)[C@@H](O)CO [4-pregnene-11β,17α,20α,21-tetrol-3-one] | 10^−10 to 10^−14 M |  | Effect on the MIF response to dexamethasone (RAW macrophages): attenuates or abolishes |
| C[C@]12CCC(=O)C=C1CC[C@@H]1[C@@H]2[C@@H](O)C[C@]2(C=O)[C@@H](C(=O)CO)CC[C@@H]12 [Aldosterone] | 10^−8 to 10^−14 M |  |  |
| C[C@@H]1C[C@H]2[C@@H]3CCC4=CC(=O)C=C[C@]4(C)[C@@]3(F)[C@@H](O)C[C@]2(C)[C@@]1(O)C(=O)CO [Dexamethasone] | 10^−8 to 10^−12 M |  |  |
| C[C@]12CCC(=O)C=C1CC[C@@H]1[C@@H]2[C@@H](O)C[C@@]2(C)[C@H]1CC[C@]2(O)C(=O)CO [Hydrocortisone] | 10^−8 to 10^−16 M |  |  |
| CC#C[C@]1(O)CC[C@H]2[C@@H]3CCC4=CC(=O)CCC4=C3[C@@H](c3ccc(N(C)C)cc3)C[C@@]21C [RU-38486 (mifepristone), mifepristone] |  |  | MIF secretion in vivo [1]: induced MIF secretion |
| C[C@]12CC[C@H]3[C@@H](CCC4=CC(=O)CC[C@@]43C)[C@@H]1CC[C@@H]2O [Testosterone] | 10^−8 to 10^−14 M |  |  |
| B1 |  | not released |  |
| B2 |  | not released | Increase in LPS responsiveness on co-stimulation [2]: > 1000 fold |
| B3 |  | not released |  |
| B4 |  | not released |  |
